Article PMC4054954 (Brain research, 2011)
“Also recorded” adds a separate entry of the source.

System: HT-22 cells
Assay: HT-22 cell-based glutamate cytoprotection assay
Parameters: species or system murine
Details: for cytoprotection / neuroprotection of HT-22 cells (in words): glutamate-induced oxidative stress cell death

## O=C(CCCN1CCC(O)(c2ccc(Cl)cc2)CC1)c1ccc(F)cc1 [haloperidol]
  cytoprotection / neuroprotection of HT-22 cells (in words): potent neuroprotective agent; also recorded: protective

## O=C(OCCN1CCOCC1)C1(c2ccccc2)CCCCC1 [PRE-084]
  cytoprotection / neuroprotection of HT-22 cells (in words): not cytoprotective

## CC(C)=CCN1CC[C@]2(C)c3cc(O)ccc3C[C@H]1[C@H]2C [(+)-pentazocine]
Mus musculus, HT-22, read-out: cytoprotective EC50
  EC50: > 4 µM
  cytoprotection / neuroprotection of HT-22 cells (in words): not to be neuroprotective; also recorded: not cytoprotective
